Where “and” joins values, the source holds several entries; their conditions need not be identical. Identical values can stand only once.
System: PHKs
Assay: Cytokine release into PHK supernatant (LEGENDplex / ELISA)
Type: cell-based, human
Settings: 5 h, lugdunin 2 µM or Pam2Cys 100 ng/mL, two technical replicates
Protocol: Fig. 1 Lugdunin sensitizes epithelial cells for innate immune defense. a Primary human keratinocytes (PHKs) were pretreated with S. epidermidis conditioned medium (CM), indicated lugdunin concentrations, or the combination of both for 20 h. Subsequently, cells were infected with S. aureus for 1.5 h followed by cell lysis and determination of colony-forming units (CFUs). Shown is one representative experiment of three independent experiments with six technical replicates ± s.e.m. n.s., not significant. b Dorsal skin of mice was pretreated with S. epidermidis CM, 1.5 µg lugdunin alone or in combination with S. epidermidis CM for 24 h. Subsequently, S. aureus CFUs were determined. Horizontal lines represent the mean of each group ± s.e.m. c PHKs were treated with 2 μM lugdunin or with S. epidermidis CM alone or in combination for 20 h and subsequently expression of indicated antimicrobial peptides (AMPs) (respective protein names in brackets) was analyzed and normalized to actin. Shown is one representative experiment of three independent experiments with two technical replicates ± s.e.m. d PHKs were treated with 2 µM lugdunin or 100 ng/mL Pam2Cys for 5 h and subsequently the concentration of indicated cytokines in the supernatant was analyzed by LEGENDplex^TM (BioLegend). Shown is one representative experiment of three independent experiments with two technical replicates ± s.e.m. e PHKs were treated with increasing concentrations of lugdunin or 100 ng/mL Pam2Cys or Pam3Cys for 5 h and subsequently expression of chemokine (C-X-C motif) ligand 8 (CXCL8) was analyzed and normalized to actin. Shown is one representative experiment of three independent experiments, each with two technical replicates ± s.e.m. f, g Indicated cells were treated with 2 µM lugdunin or 100 ng/mL Pam2Cys as a positive control for 5 h and subsequently the concentration of CXCL8 (f) and interleukin-1α (IL-1α) (g) in the supernatant was analyzed by LEGENDplex^TM (BioLegend) and enzyme-linked immunosorbent assay (ELISA) (R&D Systems). Shown is one representative experiment of three independent experiments with two technical replicates ± s.e.m. Significant differences to control treatments were analyzed by ordinary one-way analysis of variance (ANOVA) followed by Dunnett’s multiple comparisons test (*P < 0.05; **P < 0.01; ***P < 0.001; ****P < 0.0001). n.d. = not detected. Source data are provided as a Source Data file
For cytokine analysis from cell cultures, 10 µL of supernatant was used for cytokine analysis via the LEGENDplex^TM human inflammation panel (BioLegend). For cytokine analysis from mouse skin, 4 mm skin punches were cultured in an airlift system where only the dermis had access to medium for 10 h. Skin punches were cultured in RPMI containing 1% FCS (Biochrom/Merck Millipore), 1% penicillin and streptomycin (Gibco/Life Technologies) and 0.25 µg/mL amphotericin B (CELLnTEC). Ten microliters of a 3-fold dilution of culture supernatant was used for cytokine analysis via the LEGENDplex^TM mouse inflammation panel (BioLegend). Samples were acquired in duplicates using a BD LSRII flow cytometer (BD Biosciences) and LEGENDplex^TM Software (BioLegend).
For IL-1α analysis, 100 µL of cell culture supernatant was analyzed via ELISA (R&D Systems) according to manufacturer’s instruction. For MIP-2 analysis, 100 µL of a 5-fold dilution from skin cultures supernatant was used and analyzed via ELISA (R&D Systems) according to the manufacturer’s instruction. For LL-37 ELISA, ELISA plates (Nunc) were coated overnight at 4 °C with 100 µL of cell culture supernatant or 2-fold dilutions of LL-37 starting from 8 µg/mL. The next day, the plate was washed three times using PBS + 0.5% BSA + 0.05% Triton X-100, followed by incubation with 100 µL primary antibody against hCAP18/LL-37 (HycultBiotech, Cat#HM2071, 1:120 in PBS + 0.5% BSA + 0.05% Triton X-100) at 37 °C for 1 h. […]

Lugdunin
62.009 and 63.022: CXCL8 concentration in supernatant (LEGENDplex, Fig 1d)
219.647 and 222.665: MCP-1 concentration in supernatant (Fig 1d)
0.000: IFN concentration in supernatant (first line IFN, r44) (Fig 1d) | IFN concentration in supernatant (second line IFN, r45) (Fig 1d) | IL-1 concentration in supernatant (first line IL-1, r43) (Fig 1d) | IL-1 concentration in supernatant (second line IL-1, r47) (Fig 1d) | IL-6 concentration in supernatant (Fig 1d) | IL-10 concentration in supernatant (Fig 1d) | IL-12p70 concentration in supernatant (Fig 1d) | IL-18 concentration in supernatant (Fig 1d) | IL-23 concentration in supernatant (Fig 1d) | IL-33 concentration in supernatant (Fig 1d) | TNF concentration in supernatant (Fig 1d)
186.026 and 189.663: CXCL8 concentration in supernatant (Fig 1f)
